Assay results published in ChEMBL document CHEMBL4190299, “Design, Synthesis, and Cancer Cell Growth Inhibitory Activity of Triphenylphosphonium Derivatives of the Triterpenoid Betulin” (J Nat Prod, 2017).
Calls of active or inactive are those of the source. No cut-off for these calls is given here.

Key:
[1] = Cytotoxicity against human HSF cells assessed as reduction in cell viability after 72 hrs by MTT assay; type: cell-based
PC-3 [2] = test: Induction of mitochondrial membrane potential loss in human PC3 cells assessed as fluorescence intensity at cytotoxic IC50 after 48 hrs by TMRE dye-based fluorescence assay based flow cytometry relative to untreated control; type: functional
PC-3 [3] = test: Induction of mitochondrial membrane potential loss in human PC3 cells assessed as fluorescence intensity at cytotoxic IC50 after 48 hrs by TMRE dye-based fluorescence assay based flow cytometry (reference value: 210.8); type: functional
PC-3 [4] = test: Induction of cell cycle arrest in human PC3 cells assessed as effect on S phase at cytotoxic IC50 after 48 hrs by propidium iodide staining based flow cytometry; type: functional
PC-3 [5] = test: Induction of cell cycle arrest in human PC3 cells assessed as effect on G0/G1 phase at cytotoxic IC50 after 48 hrs by propidium iodide staining based flow cytometry; type: functional
PC-3 [6] = test: Induction of cell cycle arrest in human PC3 cells assessed as effect on G2/M phase at cytotoxic IC50 after 48 hrs by propidium iodide staining based flow cytometry; type: functional
MCF7 = test: cells; conditions: Homo sapiens, MCF7, 72 h
Description: Cytotoxicity against human MCF7 cells assessed as reduction in cell viability after 72 hrs by MTT assay

PC-3 [7] = test: Cytotoxicity against human PC3 cells assessed as reduction in cell viability after 72 hrs by MTT assay; type: functional, cell-based; conditions: PC-3, 72 h

SMILES | IC50 [1] | fold change (FC) (PC-3 [2]) | Flu intensity (PC-3 [3]) | Activity (PC-3 [4]) | Activity (PC-3 [5]) | Activity (PC-3 [6]) | IC50 (MCF7) | IC50 (PC-3 [7]) | Activity (PC-3 [2])
C=C(C)[C@@H]1CC[C@]2(COC(=O)CCCC[P+](c3ccccc3)(c3ccccc3)c3ccccc3)CC[C@]3(C)[C@H](CC[C@@H]4[C@@]5(C)CC[C@H](OC(=O)CCCC[P+](c6ccccc6)(c6ccccc6)c6ccccc6)C(C)(C)[C@@H]5CC[C@]43C)[C@@H]12.[Br-].[Br-] | 760 nM | 2 | 112.2 | inactive | inactive | inactive | 480 nM | 470 nM | –
C=C(C)[C@@H]1CC[C@]2(COC(=O)C[P+](c3ccccc3)(c3ccccc3)c3ccccc3)CC[C@]3(C)[C@H](CC[C@@H]4[C@@]5(C)CC[C@H](O)C(C)(C)[C@@H]5CC[C@]43C)[C@@H]12 | 9900 nM | – | – | – | – | – | > 10000 nM | 6800 nM | –
C=C(C)[C@@H]1CC[C@]2(COC(=O)CCC[P+](c3ccccc3)(c3ccccc3)c3ccccc3)CC[C@]3(C)[C@H](CC[C@@H]4[C@@]5(C)CC[C@H](O)C(C)(C)[C@@H]5CC[C@]43C)[C@@H]12 | 2100 nM | – | – | – | – | – | 430 nM | 160 nM | –
COc1cccc2c1C(=O)c1c(O)c3c(c(O)c1C2=O)C[C@@](O)(C(=O)CO)C[C@@H]3O[C@H]1C[C@H](N)[C@H](O)[C@H](C)O1 [DOXORUBICIN] | – | – | – | – | – | – | 150 nM | – | –
C=C(C)[C@@H]1CC[C@]2(COC(=O)C[P+](c3ccccc3)(c3ccccc3)c3ccccc3)CC[C@]3(C)[C@H](CC[C@@H]4[C@@]5(C)CC[C@H](OC(=O)C[P+](c6ccccc6)(c6ccccc6)c6ccccc6)C(C)(C)[C@@H]5CC[C@]43C)[C@@H]12 | 5600 nM | – | – | – | – | – | 8700 nM | 6900 nM | –
C=C(C)[C@@H]1CC[C@]2(COC(=O)CCC[P+](c3ccccc3)(c3ccccc3)c3ccccc3)CC[C@]3(C)[C@H](CC[C@@H]4[C@@]5(C)CC[C@H](OC(=O)CCC[P+](c6ccccc6)(c6ccccc6)c6ccccc6)C(C)(C)[C@@H]5CC[C@]43C)[C@@H]12.[Br-].[Br-] | 860 nM | 2 | 90.1 | inactive | inactive | inactive | 350 nM | 540 nM | –
CC[C@]1(O)C[C@@H]2CN(CCc3c([nH]c4ccccc34)[C@@](C(=O)OC)(c3cc4c(cc3OC)N(C)[C@H]3[C@@](O)(C(=O)OC)[C@H](OC(C)=O)[C@]5(CC)C=CCN6CC[C@]43[C@@H]65)C2)C1 [VINBLASTINE] | – | – | – | – | – | – | 500 nM | – | –
C=C(C)[C@@H]1CC[C@]2(COC(=O)CCCCBr)CC[C@]3(C)[C@H](CC[C@@H]4[C@@]5(C)CC[C@H](OC(=O)CCCCBr)C(C)(C)[C@@H]5CC[C@]43C)[C@@H]12 | – | – | 187.9 | inactive | inactive | inactive | – | – | 10%
C=C(C)[C@@H]1CC[C@]2(CO)CC[C@]3(C)[C@H](CC[C@@H]4[C@@]5(C)CC[C@H](O)C(C)(C)[C@@H]5CC[C@]43C)[C@@H]12 [BETULIN] | – | – | 205.9 | inactive | inactive | inactive | – | – | –
C=C(C)[C@@H]1CC[C@]2(COC(=O)CCCC[P+](c3ccccc3)(c3ccccc3)c3ccccc3)CC[C@]3(C)[C@H](CC[C@@H]4[C@@]5(C)CC[C@H](O)C(C)(C)[C@@H]5CC[C@]43C)[C@@H]12.[Br-] | 1500 nM | – | 186.6 | inactive | inactive | inactive | 700 nM | 120 nM | –
